Reference: the supplement of paper PMC10307832

Legend:
Assay in all cases: relative viability (nuclei count vs DMSO), 5 days (fraction); higher = more cells survive
[1] = compound: O=C(NCCCNc1nc(Nc2cccc(NC(=O)N3CCCC3)c2)ncc1I)c1cccs1 [BX 795] + CS(=O)(=O)N1CCN(Cc2cc3nc(-c4cccc5[nH]ncc45)nc(N4CCOCC4)c3s2)CC1 [Pictilisib] (partner 1 µM)
How it was run: (§1)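 Medians of duplicate plates are given as relative viability. That measure is the nuclei count in treated wells divided by the count in vehicle wells. Counts were taken on 4× images of lung cancer cell lines in 1536-well plates, 5 days after pin-tool dosing the day after seeding with one drug alone or a fixed anchor-drug dose plus five library-drug doses (not always all listed) in √10 steps.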

[2] = compound: O=C(NCCCNc1nc(Nc2cccc(NC(=O)N3CCCC3)c2)ncc1I)c1cccs1 [BX 795] + Nc1ncn([C@H]2C[C@H](O)[C@@H](CO)O2)c(=O)n1 [Decitabine] (partner 2 µM)
How it was run: as §1

[3] = compound: O=C(NCCCNc1nc(Nc2cccc(NC(=O)N3CCCC3)c2)ncc1I)c1cccs1 [BX 795] + NC(=O)Nc1cc(-c2cccc(F)c2)sc1C(=O)N[C@H]1CCCNC1 [AZD7762] (partner 0.2 µM)
How it was run: as §1

[4] = compound: O=C(NCCCNc1nc(Nc2cccc(NC(=O)N3CCCC3)c2)ncc1I)c1cccs1 [BX 795] + CC(=O)Nc1cccc(-n2c(=O)n(C3CC3)c(=O)c3c(Nc4ccc(I)cc4F)n(C)c(=O)c(C)c32)c1 [Trametinib] (partner 0.02 µM)
How it was run: as §1

[5] = compound: O=C(NCCCNc1nc(Nc2cccc(NC(=O)N3CCCC3)c2)ncc1I)c1cccs1 [BX 795] + Nc1nc2[nH]cc(CCc3ccc(C(=O)N[C@@H](CCC(=O)O)C(=O)O)cc3)c2c(=O)[nH]1 [Pemetrexed] (partner 0.2 µM)
How it was run: as §1

Row | Cell Line | relative viability ([1]; first compound 0.04 µM) | relative viability ([1]; first compound 0.1265 µM) | relative viability ([1]; first compound 0.4 µM) | relative viability ([1]; first compound 1.265 µM) | relative viability ([2]; first compound 0.04 µM) | relative viability ([2]; first compound 0.1265 µM) | relative viability ([2]; first compound 0.4 µM) | relative viability ([2]; first compound 1.265 µM) | relative viability ([3]; first compound 0.04 µM) | relative viability ([3]; first compound 0.1265 µM) | relative viability ([3]; first compound 0.4 µM) | relative viability ([3]; first compound 1.265 µM) | relative viability ([4]; first compound 0.04 µM) | relative viability ([4]; first compound 0.1265 µM) | relative viability ([4]; first compound 0.4 µM) | relative viability ([4]; first compound 1.265 µM) | relative viability ([5]; first compound 0.04 µM) | relative viability ([5]; first compound 0.1265 µM) | relative viability ([5]; first compound 0.4 µM) | relative viability ([5]; first compound 1.265 µM)
1 | PC-14 | 0.654 | 0.758 | 0.564 | 0.439 | 0.226 | 0.211 | 0.17 | 0.178 | 0.369 | 0.383 | 0.335 | 0.282 | 0.754 | 0.751 | 0.815 | 0.325 | 0.0872 | 0.135 | 0.0536 | 0.115
2 | EKVX | 0.401 | 0.455 | 0.421 | 0.466 | 0.356 | 0.336 | 0.382 | 0.377 | 0.67 | 0.805 | 0.671 | 0.645 | 0.358 | 0.298 | 0.382 | 0.351 | 0.309 | 0.379 | 0.228 | 0.386
3 | NCI-H650 | 0.86 | 0.979 | 0.762 | 0.623 | 0.458 | 0.299 | 0.458 | 0.357 | 0.843 | 0.908 | 0.701 | 1.05 | 1.05 | 0.999 | 0.986 | 0.928 | 0.889 | 1.04 | 0.866 | 0.809
4 | NCI-H3122 | 0.588 | 0.656 | 0.588 | 0.595 | 0.415 | 0.428 | 0.477 | 0.532 | 1.06 | 1.07 | 0.937 | 1.03 | 0.216 | 0.312 | 0.248 | 0.26 | 0.172 | 0.207 | 0.141 | 0.182
5 | HARA | 0.403 | 0.412 | 0.496 | 0.474 | 0.618 | 0.578 | 0.684 | 0.553 | 0.149 | 0.301 | 0.286 | 0.387 | 0.75 | 0.625 | 1.16 | 0.533 | 0.21 | 0.227 | 0.195 | 0.227
6 | LC-2-ad | 0.471 | 0.387 | 0.333 | 0.202 | 0.777 | 0.835 | 0.74 | 0.611 | 0.806 | 0.808 | 0.795 | 0.858 | 0.886 | 0.95 | 0.646 | 0.662 | 0.267 | 0.288 | 0.25 | 0.263
7 | NCI-H1395 | 0.673 | 0.562 | 0.461 | 0.533 | 0.693 | 0.774 | 0.48 | 0.597 | 0.375 | 0.427 | 0.39 | 0.381 | 1.05 | 1.06 | 0.52 | 0.925 | 0.675 | 0.872 | 0.407 | 0.626
8 | NCI-H647 | – | 0.363 | 0.438 | 0.343 | 0.383 | 0.447 | 0.513 | 0.37 | 0.554 | 0.493 | 0.43 | 0.363 | 0.447 | 0.504 | 0.448 | 0.344 | 0.163 | 0.186 | 0.106 | 0.106
9 | HCC-15 | 0.71 | 0.779 | 0.968 | 0.744 | 0.585 | 0.646 | 0.684 | 0.448 | 1.21 | 1.26 | 1.27 | 1.18 | 0.389 | 0.381 | 0.505 | 0.355 | 0.199 | 0.202 | 0.215 | 0.194
10 | NCI-H1993 | 0.83 | 0.79 | 0.793 | 0.806 | 0.65 | 0.602 | 0.719 | 0.652 | 0.759 | 0.795 | 0.589 | 0.809 | 0.554 | 0.439 | 0.504 | 0.561 | 0.624 | 0.616 | 0.623 | 0.585
11 | HCC-44 | 0.55 | 0.672 | 0.681 | 0.594 | 0.952 | 0.983 | 1.07 | 1 | 0.976 | 1 | 1.09 | 1.09 | 1.14 | 1.08 | 1.23 | 1.12 | 0.537 | 0.614 | 0.449 | 0.666
12 | NCI-H1944 | 0.376 | 0.329 | 0.367 | 0.363 | 0.471 | 0.497 | 0.534 | 0.408 | 0.531 | 0.555 | 0.48 | 0.531 | 0.467 | 0.377 | 0.538 | 0.374 | 0.616 | 0.577 | 0.41 | 0.606
13 | NCI-H2126 | 0.479 | 0.462 | 0.566 | 0.448 | 0.626 | 0.553 | 0.747 | 0.593 | 1.02 | 1.01 | 1.01 | 0.983 | 0.611 | 0.537 | 0.685 | 0.534 | 0.713 | 0.692 | 0.457 | 0.666
14 | NCI-H838 | 0.449 | 0.425 | 0.382 | 0.326 | 0.568 | 0.487 | 0.512 | 0.322 | 0.94 | 0.981 | 0.786 | 0.824 | 0.5 | 0.473 | 0.397 | 0.302 | 0.254 | 0.249 | 0.189 | 0.184
